We go through 15 molecules from publication PMC11979685, “Synthesis of Derivatives of the Antibiotic Albicidin: The N‐Terminal Fragment as Key to Control Potency and Resistance Mediated by the Binding Protein AlbA” (Chemistry (Weinheim an Der Bergstrasse, Germany), 2025).

One data set concerns the target E. coli DNA gyrase (Escherichia coli, UniProt P0AES4). The experiment in a line: E. coli gyrase DNA cleavage assay. In kind it is biochemical. Details: key to Gyrase inhibition strong+ / weak −: + strong inhibition; − weak inhibition in comparison to compound 16. The settings on record: for Gyrase inhibition strong+ / weak −: qualitative DNA cleavage assay at 1 μM and 10 μM, in comparison to compound 16; for CC50: E. coli gyrase DNA cleavage, read-out: CC50 (concentration at half-maximum cleavage). How it is done: The target activity of the synthesized derivatives was investigated using a DNA cleavage assay with purified and enzymatically active E. coli DNA gyrase[8] (see SI). In this assay, albicidin‐stabilized complexes of gyrase and plasmid DNA are trapped, and subsequently denatured and deproteinated to reveal DNA linearized by gyrase. […] For the best performing compounds, which were able to fully stabilize the cleavage complex at a concentration of 1 μM, the concentrations at half‐maximum cleavage (CC50) were determined (Figure 3).
1.2 Escherichia coli Gyrase Cleavage Inhibition Assay
E. coli gyrase cleavage assays were executed by setting up a master mix including 0.25 µg relaxed plasmid (pBR322) in 35 mM Tris-HCl (pH 7.5), 24 mM KCl, 4 mM MgCl2, 2 mM dithithreitol (DTT), 1.8 mM spermidine, 1 mM ATP, 6.5% (wt/vol) glycerol and 0.1 mg/ml bovine serum albumin per reaction.
Of this stock solution, 13.2 µL was aliquoted for each reaction into 1.5 mL Eppendorf tubes and supplemented with 0.3 µL of the appropriate compound dilution or DMSO with a […] DMSO concentration of 2% per reaction. The reactions were started with 1.5 µL of 50 nM (pre-screening) or 40 nM (IC50 determinations) wt E. coli gyrase in dilution buffer (50 mM Tris-HCl (pH 7.5), 100 mM KCl, 2 mM DTT, 1 mM EDTA, and 50% (wt/vol) glycerol) for a […] volume of 15 µL. Reactions were incubated at 37°C for 30 minutes before addition of 1.5 µL 0.2% (wt/vol) SDS and 0.75 µL proteinase K (0.2 mg/mL) and further incubation at 37°C for 30 minutes to trap cleavage complexes. Reactions were stopped with 15 µL chloroform:isoamyl alcohol (24: 1 v/v) and 15 µL of STEB (40% (wt/vol) sucrose, […] Tris-Cl pH 8, 10 mM EDTA, 0.5 mg/mL bromophenol blue). After brief vortexing and centrifugation at 2,300g for 5 min, 15 µL of the aqueous phase was loaded onto 1% (wt/vol) agarose in TAE (Tris-acetate […] and EDTA […]) gels supplemented with 10 µg/mL ethidium bromide.
The gels were run at 85 V for 2 hours.
DNA was visualized (602/50, UV Trans, auto optimal exposure) with a ChemiDoc MP (Bio-Rad Laboratories Inc., equipped with ImageLab Touch Software v2.0.0.27) and the percentage of cleaved DNA relative to the total amount of DNA per lane was determined with ImageJ software.[2] IC50 curves were generated in GraphPad Prism (v10.0.0) using the non-linear regression curve fit variable slope with four parameters and least squares regression.

A short description of data set [1]: Reverse-phase HPLC retention time as estimate of lipophilicity. In kind it is physicochemical. The note with it: indicator of lipophilicity. The source says:
As mentioned before, albicidin 1 is a rather hydrophobic compound and improving its aqueous solubility is desirable. The lipophilicity of drug molecules is commonly characterized by the octanol/water partition coefficient (logP). An alternative approach relies on the correlation between lipophilicity and the retention time (Rt) on a reverse‐phase HPLC column.[31] This approach works well if structurally related compounds are compared as is the case for this SAR study. Rt was thus used to estimate the hydrophilicity of albicidin 1 and its derivatives 2–24 (Table 1).[32]

E. coli DNA gyrase, sequence (P0AES4 whole entry): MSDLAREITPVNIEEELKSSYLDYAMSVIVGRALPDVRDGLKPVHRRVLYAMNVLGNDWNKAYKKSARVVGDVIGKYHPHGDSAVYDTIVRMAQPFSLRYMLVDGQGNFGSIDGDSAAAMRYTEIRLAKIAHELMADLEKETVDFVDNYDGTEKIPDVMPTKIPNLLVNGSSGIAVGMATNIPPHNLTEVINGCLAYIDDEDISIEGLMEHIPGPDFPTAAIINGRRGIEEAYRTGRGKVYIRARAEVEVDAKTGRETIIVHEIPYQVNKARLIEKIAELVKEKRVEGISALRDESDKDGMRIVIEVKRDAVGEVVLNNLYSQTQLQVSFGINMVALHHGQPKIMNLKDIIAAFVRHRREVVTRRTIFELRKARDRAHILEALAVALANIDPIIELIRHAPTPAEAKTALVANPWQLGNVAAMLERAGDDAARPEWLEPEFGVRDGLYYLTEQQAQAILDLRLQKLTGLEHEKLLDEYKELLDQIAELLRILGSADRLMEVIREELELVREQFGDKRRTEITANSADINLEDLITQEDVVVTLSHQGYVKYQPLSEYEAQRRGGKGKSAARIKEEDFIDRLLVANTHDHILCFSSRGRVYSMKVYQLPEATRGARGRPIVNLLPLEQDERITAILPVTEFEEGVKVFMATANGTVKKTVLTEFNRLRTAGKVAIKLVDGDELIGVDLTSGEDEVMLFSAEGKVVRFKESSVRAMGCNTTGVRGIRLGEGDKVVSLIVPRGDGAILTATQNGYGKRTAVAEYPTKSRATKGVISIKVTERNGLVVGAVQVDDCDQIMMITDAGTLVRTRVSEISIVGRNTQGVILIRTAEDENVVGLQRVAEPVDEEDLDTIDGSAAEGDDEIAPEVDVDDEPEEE

As to `COc1c(NC(=O)c2ccc(NC(=O)c3ccc(NC(=O)[C@H](Cc4c[nH]nn4)NC(=O)c4ccc(NC(=O)c5cc(=O)c6cc(F)ccc6o5)cc4)cn3)c(OC)c2O)ccc(C(=O)O)c1O` [compound 20], on E. coli DNA gyrase, the “Gyrase inhibition strong+ / weak −” value is given as “+”. Moreover, the “Rt (retention time)” value in data set [1] is given as 8.60 min.
With `COc1c(NC(=O)c2ccc(NC(=O)c3ccc(NC(=O)[C@H](Cc4c[nH]nn4)NC(=O)c4ccc(NC(=O)c5ccc6ccccc6n5)cc4)cn3)c(OC)c2O)ccc(C(=O)O)c1O` [compound 11], on E. coli DNA gyrase, the CC50 worked out at 18 nM and the “Gyrase inhibition strong+ / weak −” value is listed as “+”. The “Rt (retention time)” value in data set [1] is given as 9.49 min.
Take `COc1c(NC(=O)c2ccc(NC(=O)c3ccc(NC(=O)[C@H](Cc4c[nH]nn4)NC(=O)c4ccc(NC(=O)c5ccc6nc(C)ccc6c5)cc4)cn3)c(OC)c2O)ccc(C(=O)O)c1O` [compound 16]: the “Gyrase inhibition strong+ / weak −” value on E. coli DNA gyrase is on record as “+”. In data set [1], the “Rt (retention time)” value is 6.94 min.
As for `COc1c(NC(=O)c2ccc(NC(=O)c3ccc(NC(=O)[C@H](Cc4c[nH]nn4)NC(=O)c4ccc(NC(=O)c5ccc6ncsc6c5)cc4)cn3)c(OC)c2O)ccc(C(=O)O)c1O` [compound 22], at E. coli DNA gyrase, the CC50 worked out at 43 nM and the “Gyrase inhibition strong+ / weak −” value is recorded as “+”. In addition, in data set [1], the “Rt (retention time)” value is on record as 7.65 min.
Consider `COc1c(NC(=O)c2ccc(NC(=O)c3ccc(NC(=O)[C@H](Cc4c[nH]nn4)NC(=O)c4ccc(NC(=O)c5ccc(C#N)cc5)cc4)cn3)c(OC)c2O)ccc(C(=O)O)c1O` [compound 4], for which, at E. coli DNA gyrase, the CC50 is 12 nM and the “Gyrase inhibition strong+ / weak −” value is recorded as “+”. Further, the “Rt (retention time)” value in data set [1] is reported as 8.20 min.
For `COc1c(NC(=O)c2ccc(NC(=O)c3ccc(NC(=O)[C@H](Cc4c[nH]nn4)NC(=O)c4ccc(NC(=O)c5ccc6nc[nH]c6c5)cc4)cn3)c(OC)c2O)ccc(C(=O)O)c1O` [compound 23], the “Gyrase inhibition strong+ / weak −” value on E. coli DNA gyrase is given as “+”. Moreover, in data set [1], the “Rt (retention time)” value is 6.69 min.
In the case of `COc1c(NC(=O)c2ccc(NC(=O)c3ccc(NC(=O)[C@H](Cc4c[nH]nn4)NC(=O)c4ccc(NC(=O)c5ccc6nn[nH]c6c5)cc4)cn3)c(OC)c2O)ccc(C(=O)O)c1O` [compound 24], at E. coli DNA gyrase, the “Gyrase inhibition strong+ / weak −” value is “+”. Besides, the “Rt (retention time)” value in data set [1] was 7.16 min.
For `COc1c(NC(=O)c2ccc(NC(=O)c3ccc(NC(=O)[C@H](Cc4c[nH]nn4)NC(=O)c4ccc(NC(=O)c5c[nH]c6ccccc6c5=O)cc4)cn3)c(OC)c2O)ccc(C(=O)O)c1O` [compound 17], at E. coli DNA gyrase, the “Gyrase inhibition strong+ / weak −” value is “+”. Further, the “Rt (retention time)” value in data set [1] is 7.98 min.
Regarding `COc1c(NC(=O)c2ccc(NC(=O)c3ccc(NC(=O)[C@H](Cc4c[nH]nn4)NC(=O)c4ccc(NC(=O)c5cc6ccccc6cn5)cc4)cn3)c(OC)c2O)ccc(C(=O)O)c1O` [compound 12], the “Gyrase inhibition strong+ / weak −” value on E. coli DNA gyrase was “+”. Also, the “Rt (retention time)” value in data set [1] was 8.74 min.
The corresponding values for `COc1c(NC(=O)c2ccc(NC(=O)c3ccc(NC(=O)[C@H](Cc4c[nH]nn4)NC(=O)c4ccc(NC(=O)[C@@H](C)Oc5ccc(O)cc5)cc4)cn3)c(OC)c2O)ccc(C(=O)O)c1O` [compound 9] are “+” and 7.78 min.
Consider `COc1c(NC(=O)c2ccc(NC(=O)c3ccc(NC(=O)[C@H](Cc4c[nH]nn4)NC(=O)c4ccc(NC(=O)c5ccc6ncccc6c5)cc4)cn3)c(OC)c2O)ccc(C(=O)O)c1O` [compound 14], for which the “Gyrase inhibition strong+ / weak −” value on E. coli DNA gyrase is given as “+”. Besides, in data set [1], the “Rt (retention time)” value is listed as 7.67 min.
With `COc1c(NC(=O)c2ccc(NC(=O)c3ccc(NC(=O)[C@H](Cc4c[nH]nn4)NC(=O)c4ccc(NC(=O)c5cnc6ccccc6c5)cc4)cn3)c(OC)c2O)ccc(C(=O)O)c1O` [compound 13], the “Gyrase inhibition strong+ / weak −” value at E. coli DNA gyrase was “+”. Further, in data set [1], the “Rt (retention time)” value is 8.07 min.
As for `COc1c(NC(=O)c2ccc(NC(=O)c3ccc(NC(=O)[C@H](Cc4c[nH]nn4)NC(=O)c4ccc(NC(=O)c5cc6cc(O)ccc6[nH]5)cc4)cn3)c(OC)c2O)ccc(C(=O)O)c1O` [compound 21], on E. coli DNA gyrase, the “Gyrase inhibition strong+ / weak −” value is given as “+”. Further, the “Rt (retention time)” value in data set [1] is 7.50 min.
Consider `CCn1cc(C(=O)Nc2ccc(C(=O)N[C@@H](Cc3c[nH]nn3)C(=O)Nc3ccc(C(=O)Nc4ccc(C(=O)Nc5ccc(C(=O)O)c(O)c5OC)c(O)c4OC)nc3)cc2)c(=O)c2ccc(C)nc21` [compound 18], for which, at E. coli DNA gyrase, the “Gyrase inhibition strong+ / weak −” value is “−”. Besides, the “Rt (retention time)” value in data set [1] is recorded as 9.24 min.
The like results for `CCn1cc(C(=O)Nc2ccc(C(=O)N[C@@H](Cc3c[nH]nn3)C(=O)Nc3ccc(C(=O)Nc4ccc(C(=O)Nc5ccc(C(=O)O)c(O)c5OC)c(O)c4OC)nc3)cc2)c(=O)c2cc3c(cc21)OCO3` [compound 19] were, in that order, “−” and 8.45 min.
